# Earlier results, collected in patent publication US20250375409A1, “Treatment of REM Behavior Disorder” (Vanda Pharmaceuticals Inc., priority 2024, published 2025).
# Legend:
# [1] = following an oral dose; large first pass effect
compound,measurement,setting,value
CCC(=O)NCC[C@@H]1CCc2ccc3c(c21)CCO3 [ramelteon],mean systemic availability,[1],less than 2%
same,RBD outcome in open label trial,"Esaki et al., 12 patients with idiopathic RBD, 8 mg given 30 minutes before bedtime",trend towards improvement
same,"RBD symptoms, including the RBD severity scale (RBDSS)","Nomura et al. 2013, 8 mg, two patients with RBD in association with Parkinsonian syndromes",improvement of their RBD symptoms
same,RBD outcome in patients with Parkinson's disease,"patients with Parkinson's disease, with or without RBD, after treatment",statistically significant RBD improvement
